According to ChEMBL document CHEMBL1255175, “Synthesis, antimicrobial, and mosquito larvicidal activity of 1-aryl-4-methyl-3,6-bis-(5-methylisoxazol-3-yl)-2-thioxo-2,3,6,10b-tetrahydro-1H-pyrimido[5,4-c]quinolin-5-ones” (2010):
≈ marks a conversion by molar mass, not a printed value.

What was measured:
Assay type in all cases: functional
[1] = test system: Bacillus subtilis; assay: Antimicrobial activity against Bacillus subtilis MTCC 441
[2] = test system: Lysinibacillus sphaericus; assay: Antimicrobial activity against Bacillus sphaericus MTCC 511
[3] = test system: Staphylococcus aureus; assay: Antimicrobial activity against Staphylococcus aureus MTCC 96
[4] = test system: Pseudomonas aeruginosa; assay: Antimicrobial activity against Pseudomonas aeruginosa MTCC 741
[5] = test system: Klebsiella aerogenes; assay: Antimicrobial activity against Klebsiella aerogenes MTCC 39
[6] = test system: Chromobacterium violaceum; assay: Antimicrobial activity against Chromobacterium violaceum MTCC 2656
[7] = test system: Aspergillus niger; assay: Antifungal activity against Aspergillus niger MTCC 282 at 30 ug/ml; conditions: read-out: DIZ
[8] = test system: Aspergillus niger; assay: Antifungal activity against Aspergillus niger MTCC 282 at 100 ug/ml; conditions: read-out: DIZ
[9] = Antifungal activity against Chrysosporium tropicum MTCC 2821 at 30 ug/ml
[10] = test system: Rhizopus arrhizus; assay: Antifungal activity against Rhizopus oryzae MTCC 262 at 30 ug/ml; conditions: read-out: DIZ
[11] = test system: Rhizopus arrhizus; assay: Antifungal activity against Rhizopus oryzae MTCC 262 at 100 ug/ml; conditions: read-out: DIZ
[12] = test system: Fusarium verticillioides; assay: Antifungal activity against Fusarium moniliforme MTCC 1848 at 30 ug/ml; conditions: read-out: DIZ
[13] = test system: Fusarium verticillioides; assay: Antifungal activity against Fusarium moniliforme MTCC 1848 at 100 ug/ml; conditions: read-out: DIZ
[14] = test system: Curvularia lunata; assay: Antifungal activity against Curvularia lunata MTCC 2030 at 30 ug/ml; conditions: read-out: DIZ
[15] = test system: Curvularia lunata; assay: Antifungal activity against Curvularia lunata MTCC 2030 at 100 ug/ml; conditions: read-out: DIZ
[16] = test system: Culex quinquefasciatus; assay: Insecticidal activity against Culex quinquefasciatus 4th instar larvae; conditions: for LC50: Culex quinquefasciatus
[17] = Antifungal activity against Chrysosporium tropicum MTCC 2821 at 100 ug/ml

CC1=C2C(=O)N(c3cc(C)on3)c3ccccc3C2N(Cc2ccccc2)C(=S)N1c1cc(C)on1 (stereo not given)
MIC [1]: 22 µg/mL (≈ 44.2 µM) | MIC [2]: 18 µg/mL (≈ 36.2 µM) | MIC [3]: 25 µg/mL (≈ 50.2 µM) | MIC [4]: 20 µg/mL (≈ 40.2 µM) | MIC [5]: 15 µg/mL (≈ 30.1 µM) | MIC [6]: 18 µg/mL (≈ 36.2 µM) | zone of inhibition at 30 µg/mL [7]: 31 mm | zone of inhibition at 100 µg/mL [8]: 61 mm | inhibition zone (IZ) [9]: 30 mm | zone of inhibition at 30 µg/mL [10]: 35 mm | zone of inhibition at 100 µg/mL [11]: 59 mm | zone of inhibition at 30 µg/mL [12]: 32 mm | zone of inhibition at 100 µg/mL [13]: 55 mm | zone of inhibition at 30 µg/mL [14]: 30 mm | zone of inhibition at 100 µg/mL [15]: 55 mm | LC90 [16]: 1.59 µg/mL (≈ 3.2 µM) | LC50 [16]: 2.27 µg/mL (≈ 4.56 µM)

COc1cccc(N2C(=S)N(c3cc(C)on3)C(C)=C3C(=O)N(c4cc(C)on4)c4ccccc4C32)c1 (stereo not given)
MIC [1]: 18 µg/mL (≈ 35 µM) | MIC [2]: 18 µg/mL (≈ 35 µM) | MIC [3]: 12 µg/mL (≈ 23.4 µM) | MIC [4]: 8 µg/mL (≈ 15.6 µM) | MIC [5]: 13 µg/mL (≈ 25.3 µM) | MIC [6]: 11 µg/mL (≈ 21.4 µM) | zone of inhibition at 30 µg/mL [7]: 20 mm | zone of inhibition at 100 µg/mL [8]: 40 mm | inhibition zone (IZ) [9]: 28 mm | inhibition zone (IZ) [17]: 40 mm | zone of inhibition at 30 µg/mL [10]: 40 mm | zone of inhibition at 100 µg/mL [11]: 65 mm | zone of inhibition at 30 µg/mL [12]: 35 mm | zone of inhibition at 100 µg/mL [13]: 60 mm | zone of inhibition at 30 µg/mL [14]: 35 mm | zone of inhibition at 100 µg/mL [15]: 55 mm | LC90 [16]: 2.41 µg/mL (≈ 4.69 µM) | LC50 [16]: 1.25 µg/mL (≈ 2.43 µM)

CC1=C2C(=O)N(c3cc(C)on3)c3ccccc3C2N(c2ccccc2Cl)C(=S)N1c1cc(C)on1 (stereo not given)
MIC [1]: 8 µg/mL (≈ 15.4 µM) | MIC [2]: 10 µg/mL (≈ 19.3 µM) | MIC [3]: 9 µg/mL (≈ 17.4 µM) | MIC [4]: 5 µg/mL (≈ 9.65 µM) | MIC [5]: 8 µg/mL (≈ 15.4 µM) | MIC [6]: 6 µg/mL (≈ 11.6 µM) | zone of inhibition at 30 µg/mL [7]: 30 mm | zone of inhibition at 100 µg/mL [8]: 55 mm | inhibition zone (IZ) [9]: 25 mm | inhibition zone (IZ) [17]: 40 mm | zone of inhibition at 30 µg/mL [10]: 35 mm | zone of inhibition at 100 µg/mL [11]: 50 mm | zone of inhibition at 30 µg/mL [12]: 30 mm | zone of inhibition at 100 µg/mL [13]: 45 mm | zone of inhibition at 30 µg/mL [14]: 40 mm | zone of inhibition at 100 µg/mL [15]: 55 mm | LC90 [16]: 1 µg/mL (≈ 1.93 µM) | LC50 [16]: 0.98 µg/mL (≈ 1.89 µM)

Clc1ccccc1C(c1ccccc1)(c1ccccc1)n1ccnc1 [CLOTRIMAZOLE]
zone of inhibition at 100 µg/mL [8]: 26 mm | inhibition zone (IZ) [17]: 30 mm | zone of inhibition at 100 µg/mL [11]: 33 mm | zone of inhibition at 100 µg/mL [13]: 25 mm | zone of inhibition at 100 µg/mL [15]: 35 mm

CC1=C2C(=O)N(c3cc(C)on3)c3ccccc3C2N(c2ccccc2)C(=S)N1c1cc(C)on1 (stereo not given)
MIC [1]: 19 µg/mL (≈ 39.3 µM) | MIC [2]: 15 µg/mL (≈ 31 µM) | MIC [3]: 15 µg/mL (≈ 31 µM) | MIC [4]: 20 µg/mL (≈ 41.4 µM) | MIC [5]: 13 µg/mL (≈ 26.9 µM) | MIC [6]: 18 µg/mL (≈ 37.2 µM) | zone of inhibition at 30 µg/mL [7]: 25 mm | zone of inhibition at 100 µg/mL [8]: 45 mm | inhibition zone (IZ) [9]: 30 mm | inhibition zone (IZ) [17]: 45 mm | zone of inhibition at 30 µg/mL [10]: 40 mm | zone of inhibition at 100 µg/mL [11]: 50 mm | zone of inhibition at 30 µg/mL [12]: 30 mm | zone of inhibition at 100 µg/mL [13]: 45 mm | zone of inhibition at 30 µg/mL [14]: 35 mm | zone of inhibition at 100 µg/mL [15]: 40 mm | LC90 [16]: 3.1 µg/mL (≈ 6.41 µM) | LC50 [16]: 1.02 µg/mL (≈ 2.11 µM)

COc1ccc(N2C(=S)N(c3cc(C)on3)C(C)=C3C(=O)N(c4cc(C)on4)c4ccccc4C32)cc1 (stereo not given)
MIC [1]: 20 µg/mL (≈ 38.9 µM) | MIC [2]: 15 µg/mL (≈ 29.2 µM) | MIC [3]: 10 µg/mL (≈ 19.5 µM) | MIC [4]: 15 µg/mL (≈ 29.2 µM) | MIC [5]: 14 µg/mL (≈ 27.3 µM) | MIC [6]: 18 µg/mL (≈ 35 µM) | zone of inhibition at 30 µg/mL [7]: 35 mm | zone of inhibition at 100 µg/mL [8]: 60 mm | inhibition zone (IZ) [9]: 40 mm | zone of inhibition at 30 µg/mL [10]: 45 mm | zone of inhibition at 100 µg/mL [11]: 65 mm | zone of inhibition at 30 µg/mL [12]: 35 mm | zone of inhibition at 100 µg/mL [13]: 60 mm | zone of inhibition at 30 µg/mL [14]: 40 mm | zone of inhibition at 100 µg/mL [15]: 60 mm | LC90 [16]: 3.65 µg/mL (≈ 7.11 µM) | LC50 [16]: 2.09 µg/mL (≈ 4.07 µM)

CC1=C2C(=O)N(c3cc(C)on3)c3ccccc3C2N(c2ccc(Cl)cc2)C(=S)N1c1cc(C)on1 (stereo not given)
MIC [1]: 16 µg/mL (≈ 30.9 µM) | MIC [2]: 15 µg/mL (≈ 29 µM) | MIC [3]: 15 µg/mL (≈ 29 µM) | MIC [4]: 20 µg/mL (≈ 38.6 µM) | MIC [5]: 15 µg/mL (≈ 29 µM) | MIC [6]: 13 µg/mL (≈ 25.1 µM) | zone of inhibition at 30 µg/mL [7]: 25 mm | zone of inhibition at 100 µg/mL [8]: 40 mm | inhibition zone (IZ) [9]: 30 mm | inhibition zone (IZ) [17]: 45 mm | zone of inhibition at 30 µg/mL [10]: 40 mm | zone of inhibition at 100 µg/mL [11]: 50 mm | zone of inhibition at 30 µg/mL [12]: 30 mm | zone of inhibition at 100 µg/mL [13]: 45 mm | zone of inhibition at 30 µg/mL [14]: 35 mm | zone of inhibition at 100 µg/mL [15]: 50 mm | LC90 [16]: 4 µg/mL (≈ 7.72 µM) | LC50 [16]: 1.01 µg/mL (≈ 1.95 µM)

O=C(O)c1cn(C2CC2)c2cc(N3CCNCC3)c(F)cc2c1=O [CIPROFLOXACIN]
MIC [1]: 20 µg/mL (≈ 60.4 µM) | MIC [2]: 20 µg/mL (≈ 60.4 µM) | MIC [4]: 30 µg/mL (≈ 90.5 µM) | MIC [6]: 25 µg/mL (≈ 75.4 µM)

CC1=C2C(=O)N(c3cc(C)on3)c3ccccc3C2N(c2ccc(C)cc2)C(=S)N1c1cc(C)on1 (stereo not given)
MIC [1]: 16 µg/mL (≈ 32.2 µM) | MIC [2]: 11 µg/mL (≈ 22.1 µM) | MIC [3]: 10 µg/mL (≈ 20.1 µM) | MIC [4]: 10 µg/mL (≈ 20.1 µM) | MIC [5]: 8 µg/mL (≈ 16.1 µM) | MIC [6]: 6 µg/mL (≈ 12.1 µM) | zone of inhibition at 30 µg/mL [7]: 40 mm | zone of inhibition at 100 µg/mL [8]: 60 mm | inhibition zone (IZ) [9]: 40 mm | zone of inhibition at 30 µg/mL [10]: 45 mm | zone of inhibition at 100 µg/mL [11]: 65 mm | zone of inhibition at 30 µg/mL [12]: 45 mm | zone of inhibition at 100 µg/mL [13]: 60 mm | zone of inhibition at 30 µg/mL [14]: 45 mm | zone of inhibition at 100 µg/mL [15]: 65 mm | LC90 [16]: 2.41 µg/mL (≈ 4.84 µM) | LC50 [16]: 0.85 µg/mL (≈ 1.71 µM)

CC1=C2C(=O)N(c3cc(C)on3)c3ccccc3C2N(c2ccc(Br)cc2)C(=S)N1c1cc(C)on1 (stereo not given)
MIC [1]: 6 µg/mL (≈ 10.7 µM) | MIC [2]: 8 µg/mL (≈ 14.2 µM) | MIC [3]: 9 µg/mL (≈ 16 µM) | MIC [4]: 9 µg/mL (≈ 16 µM) | MIC [5]: 7 µg/mL (≈ 12.4 µM) | MIC [6]: 5 µg/mL (≈ 8.89 µM) | zone of inhibition at 30 µg/mL [7]: 40 mm | zone of inhibition at 100 µg/mL [8]: 50 mm | inhibition zone (IZ) [9]: 25 mm | inhibition zone (IZ) [17]: 45 mm | zone of inhibition at 30 µg/mL [10]: 39 mm | zone of inhibition at 100 µg/mL [11]: 45 mm | zone of inhibition at 30 µg/mL [12]: 25 mm | zone of inhibition at 100 µg/mL [13]: 40 mm | zone of inhibition at 30 µg/mL [14]: 35 mm | zone of inhibition at 100 µg/mL [15]: 45 mm | LC90 [16]: 1.8 µg/mL (≈ 3.2 µM) | LC50 [16]: 0.88 µg/mL (≈ 1.56 µM)
